In patent publication US6806257B1, “Flavones as inducible nitric oxide synthase inhibitors, cyclooxygenase-2 inhibitors and potassium channel activators” (priority 1999, dated 2004):

How the values were obtained:
iNOS = test: LPS-induced nitrite production and iNOS expression in Bcl-2-overexpressed RAW264.7 cells; assay type: cell-based, mouse; conditions: 20 μg/ml, LPS 100 ng/ml, Bcl-2/RAW-1 and Bcl-2/RAW-2 cells
nNOS = nNOS expression in cultured primary smooth muscle cells from porcine cerebral arteries; assay type: cell-based; conditions: 30 μM and 60 μM
[1] = system: LPS-induced NO production in RAW264.7 macrophages; test: LPS-induced nitrite (NO) production in RAW264.7 macrophages, Griess reaction; assay type: cell-based, mouse; conditions: 5, 10 or 20 μg/ml together with 100 ng/ml LPS for 24 hours
Description: Cells. RAW264.7, a mouse macrophage cell line, was obtained from American Type Culture Collection. Cells were cultured in RPMI-1640 medium (available from Gibco Life Technology, in Gaithersburg, Md.) supplemented with 2 mM L-glutamine, antibiotics (100 units/ml penicillin-A and 100 units/ml streptomycin) and 10% heat-inactivated fetal bovine serum (Gibco/BRL) and maintained at 37° C in a humidified incubator containing 5% CO2.
Nitrite assay. The nitrite concentration in the medium was measured as an indicator of NO production according to the Griess reaction (Kim et al., J. Immunol. 153: 4741-4748). One hundred microliters of each supernatant was. mixed with the same volume of Griess reagent (1% sulfanilamide in 5% phosphoric acid and 0. 1% naphthylethylenediamine dihydrochloride in water); absorbency of the mixture at 550 nm was determined with an enzyme-linked immunosorbent assay plate reader (Dynatech MR-7000; Dynatech Labs, Chantilly, Va.).
The effects of flavonoids, ellagitannins, anthraquinones on LPS-induced NO production in macrophages were studied as follows. The chemical structures of two flavonoids (myricitrin, N1; oroxylin A, N2) four ellagitannins (penta-O-galloyl-β-glucopyranose, N3; woodfordin C, N4; onothein B, N5; cuphiin, N6), and two anthraquinones (emodin, N7; physcion, N8) that were used in the present study were shown in FIG. 1. The effects of these eight compounds on NO production in RAW264.7 macrophages were investigated. The accumulated nitrite in the culture medium was used as an index for NO synthesis from these cells. […]

Structure (SMILES): COc1c(O)cc2oc(-c3ccccc3)cc(=O)c2c1O [oroxylin A, 5,7-dihydroxy-6-methoxy flavone]
- LPS-induced iNOS gene expression (iNOS): inhibited
- LPS-induced nitrite production (iNOS): inhibited
- expression of nNOS (nNOS): did not affect
- LPS-induced nitrite production [1]: significant inhibition
